{
  "source": "patent US8367607B2",
  "about": "“Oxyntomodulin peptide analogue” (Eli Lilly and Company, priority 2009, dated 2013)",
  "key": {"[1]": {"assay": "Food intake, body weight, body composition, calorimetry and plasma markers in DIO mice, Study 2: four week treatment", "format": "in vivo, diet-induced obese (DIO) C57BL/6 mice", "description": "Three to four months old male diet-induced obese (DIO) C57BL/6 mice are used. Animals are individually housed in a temperature-controlled (24° C.) facility with a 12 hour light/dark cycle (lights on 22:00), and have free access to food and water. After 2 weeks acclimation to the facility, mice are randomized to treatment groups (n=8-10/group), each group having similar mean body weight and fat mass. Before the experiment, mice are subcutaneously (sc) injected with vehicle solution and weighed for 2 days to acclimate them to the procedures.\nBody weight and the weight of food plus the hopper are measured at the same time. Food consumed in the preceding 24 hours is calculated by subtracting current weight of food plus the hopper from that of the previous day. Absolute changes in body weight are calculated by subtracting the body weight of the animal prior to the first injection. On days 1, 14 and 28 total fat mass is measured by nuclear magnetic resonance (NMR) using an Echo Medical System (Houston, Tex.) instrument. Fat free mass is calculated by subtracting fat mass from total body weight."}, "[2]": {"assay": "Oral glucose tolerance test after 2-week treatment in DIO mice", "format": "in vivo", "conditions": "for Glucose AUC (0 to 120 min), oral glucose load, MEAN: DIO mice", "description": "(§1) Fifty-six hours after the last injection as described in Example 7 (Study 1) in DIO mice, mice are fasted for 16 hours prior to the start of the glucose tolerance test. At time 0, animals are given 2 g/kg dextrose by oral gavage or intraperitoneal (IP) injection. Blood is collected by tail vein bleeding at 0, 15, 30, 60 and 120 minutes after glucose challenge. Glucose concentration is measured by glucometer."}, "[3]": {"assay": "Acute effects on plasma FGF21, triglyceride levels and hepatic gene expression in DIO mice", "format": "in vivo, diet-induced obese C57BL/6 mice", "conditions": "single sc injection 22.5 nmole/kg", "description": "The day before the study, mice are randomized to treatment groups (N=7/group), each group having similar mean body weight. […] Food is removed at the time of injection of peptide or vehicle. The following morning (approximately 10 AM), the animals are sacrificed to collect plasma and liver tissue. Glucose and triglyceride concentrations are measured using a Hitachi blood chemistry analyzer. Gene expression is determined by RT-PCR. Malonyl-CoA and acetyl-CoA levels are measured by HPLC."}, "[4]": {"assay": "Intraperitoneal glucose tolerance test after 4-week treatment in DIO mice", "format": "in vivo", "conditions": "for Glucose AUC (0 to 120 min), intraperitoneal glucose load, MEAN: after 4 week treatment, DIO mice", "description": "as §1\nAn intraperitoneal glucose tolerance test (IPGTT) is performed on day 29, 3 days after the last injection as described in Example 7 (Study 2) in DIO mice."}, "[5]": {"assay": "Intraperitoneal glucose tolerance test in lean mice", "format": "in vivo, C57BL/6 mice", "conditions": "16 hours before test", "description": "Nine week old male C57BL/6 mice are used in the study Animals are randomized into groups based on fed body weight. […] Food is removed at the time of injection of peptide or vehicle. At time 0, animals are given 2 g/kg dextrose by IP injection. Blood is collected by tail vein bleeding at 0, 3, 6, 12 and 30 minutes after glucose challenge. Glucose concentration is measured by glucometer. Insulin is measure by Mesoscale."}, "[6]": {"assay": "Food intake, body weight and body composition in DIO mice, Study 1: two week treatment", "format": "in vivo, diet-induced obese (DIO) C57BL/6 mice", "description": "Three to four months old male diet-induced obese (DIO) C57BL/6 mice are used. Animals are individually housed in a temperature-controlled (24° C.) facility with a 12 hour light/dark cycle (lights on 22:00), and have free access to food and water. […] Body weight and the weight of food plus the hopper are measured at the same time. Food consumed in the preceding 24 hours is calculated by subtracting current weight of food plus the hopper from that of the previous day. Absolute changes in body weight are calculated by subtracting the body weight of the animal prior to the first injection. […] Fat free mass is calculated by subtracting fat mass from total body weight."}, "[7]": {"assay": "Oral glucose tolerance test (OGTT) in ob/ob mice", "format": "in vivo", "conditions": "single injection 7.5 nmole/kg", "description": "Two to three months old male ob/ob mice are individually housed in a temperature-controlled (24° C.) facility with a 12 hour light/dark cycle (lights on 2200 hours), and have free access to the standard chow and water. After at least 2 weeks of acclimation to the facility, 3-hours fasting blood glucose is measured by tail vein bleeding at 9 AM. Mice with blood glucose under 180 mg/dL are not used. Remaining animals are randomized to treatment groups (N=6-7/group), each group having similar average blood glucose level. The mice are given access to food until the time of injection. […] Food is removed at the time of injection. An OGTT (Table 7) or IPGTT (Table 8) is performed 16 hours after the peptide injection. At time 0, animals are given 2 g/kg dextrose by oral gavage (Table 7) or intraperitoneal injection (Table 8). Blood is collected by tail vein bleeding at 0, 15, 30, 60 and 120 minutes after glucose challenge. Glucose concentration is measured by glucometer."}, "[8]": {"conditions": "high dose, completion of 4-week study"}},
  "note": "Marks after values point to notes of the source that are not given here.",
  "data": [
    {"substance": "His-(Aib)-Gln-Gly-Thr-Phe-Thr-Ser-Asp-Tyr-Ser-Lys-Tyr-Leu-Asp-Ser-Lys-Lys-Ala-Gln-Glu-Phe-Val-Gln-Trp-Leu-Leu-Asn-(Aib)-Gly-Arg-Asn-Arg-Asn-Asn-Ile-Ala-Cys(20 kDa PEG)-Cys(20 kDa PEG)", "values": [
      {"measurement": "Total food intake (g total for the first 14 days)", "setting": "[1]; 6.7 nmole/kg sc every 3 days", "value": "36.0 ± 1.1", "unit": "g"},
      {"measurement": "Fat mass loss (g fat weight change for 28 days)", "setting": "[1]; 6.7 nmole/kg sc every 3 days", "value": "-0.7 ± 0.2", "unit": "g"},
      {"measurement": "Overall weight loss (g weight change for 28 days)", "setting": "[1]; 6.7 nmole/kg sc every 3 days", "value": "-2.0 ± 0.4", "unit": "g"},
      {"measurement": "weight loss compared with 22.5 nmole/kg dose of the positive control", "setting": "[1]; 20 nmole/kg", "value": "significantly greater weight loss"},
      {"measurement": "Total food intake (g total for the first 14 days)", "setting": "[1]; 20.0 nmole/kg sc every 3 days", "value": "26.1 ± 1.4", "unit": "g"},
      {"measurement": "Fat mass loss (g fat weight change for 28 days)", "setting": "[1]; 20.0 nmole/kg sc every 3 days", "value": "-7.5 ± 0.7", "unit": "g"},
      {"measurement": "Overall weight loss (g weight change for 28 days)", "setting": "[1]; 20.0 nmole/kg sc every 3 days", "value": "-11.1 ± 0.9", "unit": "g"},
      {"measurement": "maximal weight reduction, of the initial body weight", "setting": "[1]; 20 nmole/kg, after 15 days of treatment", "value": "about 25%"},
      {"measurement": "increase of averaged 24-hour energy expenditure versus vehicle", "setting": "[1]; 20 nmole/kg, indirect calorimetry, day 21", "value": 18, "unit": "%"},
      {"measurement": "leptin levels versus vehicle treated controls", "setting": "[1]; [8]", "value": "significantly reduced"},
      {"measurement": "plasma adiponectin levels versus vehicle treated controls", "setting": "[1]; [8]", "value": "statistically significantly difference"},
      {"measurement": "cumulative food intake", "setting": "[1]; high doses (20 nmole/kg)", "value": "significantly decreased"},
      {"measurement": "body weight versus positive control group", "setting": "[1]; lower doses (6.7 nmole/kg)", "value": "decreased body weight to a similar degree as seen in the positive control group"},
      {"measurement": "Glucose AUC (0 to 120 min), oral glucose load, MEAN", "setting": "[2]; 7.5 nmole/kg", "value": "17722* mg * min/dL"},
      {"measurement": "Glucose AUC (0 to 120 min), oral glucose load, MEAN", "setting": "[2]; 15 nmole/kg", "value": "17518* mg * min/dL"},
      {"measurement": "blood glucose at all time points before and after the oral glucose challenge versus vehicle", "setting": "[2]; all doses", "value": "significantly lowered"},
      {"measurement": "decrease of liver acetyl-CoA concentration versus vehicle control", "setting": "[3]; DIO mice", "value": 39, "unit": "%"},
      {"measurement": "decrease of liver malonyl-CoA concentration versus vehicle control", "setting": "[3]; DIO mice", "value": 63, "unit": "%"},
      {"measurement": "decrease of hepatic ChREBP gene expression", "setting": "[3]; RT-PCR", "value": 52, "unit": "%"},
      {"measurement": "decrease of hepatic PCSK9 gene expression", "setting": "[3]; RT-PCR", "value": 61, "unit": "%"},
      {"measurement": "increase of hepatic pgc-1a gene expression", "setting": "[3]; RT-PCR", "value": 7, "unit": "fold"},
      {"measurement": "induction of hepatic FGF21 gene expression", "setting": "[3]; RT-PCR", "value": 17, "unit": "fold"},
      {"measurement": "increase in circulating FGF21", "setting": "[3]; plasma", "value": 6, "unit": "fold"},
      {"measurement": "Glucose AUC (0 to 120 min), intraperitoneal glucose load, MEAN", "setting": "[4]; 6.7 nmole/kg", "value": 30073, "unit": "mg·min/dL"},
      {"measurement": "Glucose AUC (0 to 120 min), intraperitoneal glucose load, MEAN", "setting": "[4]; 20.0 nmole/kg", "value": "19264* mg * min/dL"},
      {"measurement": "blood glucose at all time points before and after IP glucose challenge versus vehicle", "setting": "[4]; high dose of analogue, both doses of positive control, day 29", "value": "significantly lowered"},
      {"measurement": "glucose levels after IP glucose challenge", "setting": "[4]; low dose, day 29", "value": "little effect"},
      {"measurement": "Glucose AUC (0 to 30 min), IPGTT in lean mice, MEAN", "setting": "[5]; 5 nmole/kg", "value": 7059, "unit": "mg·min/dL"},
      {"measurement": "Insulin AUC (0 to 30 min), IPGTT in lean mice, MEAN", "setting": "[5]; 5 nmole/kg", "value": "30.67* ng * min/mL"},
      {"measurement": "Glucose AUC (0 to 30 min), IPGTT in lean mice, MEAN", "setting": "[5]; 15 nmole/kg", "value": "6103* mg * min/dL"},
      {"measurement": "Insulin AUC (0 to 30 min), IPGTT in lean mice, MEAN", "setting": "[5]; 15 nmole/kg", "value": "45.26* ng * min/mL"},
      {"measurement": "cumulative weight loss, reduction compared to the vehicle group", "setting": "[6]; 7.5 nmole/kg every 3 days, 2 weeks", "value": "about 9%"},
      {"measurement": "Fat mass loss (g fat weight change for 14 days)", "setting": "[6]; 7.5 nmole/kg sc every 3 days", "value": "-2.2 ± 0.3", "unit": "g"},
      {"measurement": "Overall weight loss (g weight change for 14 days)", "setting": "[6]; 7.5 nmole/kg sc every 3 days", "value": "-3.1 ± 0.4", "unit": "g"},
      {"measurement": "Total food intake (g total for 14 days)", "setting": "[6]; 7.5 nmole/kg sc every 3 days", "value": "35.0 ± 0.8", "unit": "g"},
      {"measurement": "vehicle controlled cumulative weight loss", "setting": "[6]; 15 nmole/kg every 3 days, 2 weeks", "value": 18, "unit": "%"},
      {"measurement": "Fat mass loss (g fat weight change for 14 days)", "setting": "[6]; 15 nmole/kg sc every 3 days", "value": "-3.9 ± 0.7", "unit": "g"},
      {"measurement": "Overall weight loss (g weight change for 14 days)", "setting": "[6]; 15 nmole/kg sc every 3 days", "value": "-6.1 ± 0.9", "unit": "g"},
      {"measurement": "Total food intake (g total for 14 days)", "setting": "[6]; 15 nmole/kg sc every 3 days", "value": "29.8 ± 1.5", "unit": "g"},
      {"measurement": "cumulative food intake reduction compared to the vehicle group", "setting": "[6]; 15 nmole/kg, end of 2-week study", "value": 27, "unit": "%"},
      {"measurement": "effect on food intake and body weight", "setting": "[6]; 7.5 and 15 nmole/kg, 2 weeks", "value": "dose-dependent reduction"},
      {"measurement": "blood glucose in ob/ob mice", "setting": "[7]", "value": "normalized blood glucose"},
      {"measurement": "blood glucose levels at all time points after glucose challenge versus vehicle control group", "setting": "[7]; ob/ob mice", "value": "significantly lower"}
    ]}
  ]
}
